Measurements as given in patent publication US10670605B2, “Cysteine reactive probes and uses thereof” (The Scripps Research Institute, priority 2015, dated 2020).

Columns and labels:
Assay in all cases: Competitive isoTOP-ABPP in situ (fragment-treated cells)
Type in all cases: cell-based
[1] = target: cysteines in MDA-MB-231 and Ramos cells (Homo sapiens, UniProt Q9NUY8)
[2] = target: T1, cysteines in MDA-MB-231 and Ramos cells (Homo sapiens, UniProt Q9HCC0)
T1 sequence (Q9HCC0 23-563): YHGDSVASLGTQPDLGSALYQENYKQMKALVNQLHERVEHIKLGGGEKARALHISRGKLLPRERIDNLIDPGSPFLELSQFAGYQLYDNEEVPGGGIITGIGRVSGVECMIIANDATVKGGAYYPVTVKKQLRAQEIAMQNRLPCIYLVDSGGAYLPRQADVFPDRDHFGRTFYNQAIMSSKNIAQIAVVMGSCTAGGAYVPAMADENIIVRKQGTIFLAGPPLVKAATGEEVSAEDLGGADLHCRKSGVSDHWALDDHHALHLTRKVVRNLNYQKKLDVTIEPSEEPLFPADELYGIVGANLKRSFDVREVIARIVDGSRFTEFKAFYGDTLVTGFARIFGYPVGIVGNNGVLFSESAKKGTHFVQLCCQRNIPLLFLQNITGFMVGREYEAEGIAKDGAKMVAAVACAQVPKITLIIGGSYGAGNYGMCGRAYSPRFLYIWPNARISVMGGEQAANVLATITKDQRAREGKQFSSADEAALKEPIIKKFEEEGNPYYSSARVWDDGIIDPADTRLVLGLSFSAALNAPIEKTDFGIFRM

[3] = target: T2, cysteines in MDA-MB-231 and Ramos cells (Homo sapiens, UniProt O14879)
T2 sequence (O14879 1-490): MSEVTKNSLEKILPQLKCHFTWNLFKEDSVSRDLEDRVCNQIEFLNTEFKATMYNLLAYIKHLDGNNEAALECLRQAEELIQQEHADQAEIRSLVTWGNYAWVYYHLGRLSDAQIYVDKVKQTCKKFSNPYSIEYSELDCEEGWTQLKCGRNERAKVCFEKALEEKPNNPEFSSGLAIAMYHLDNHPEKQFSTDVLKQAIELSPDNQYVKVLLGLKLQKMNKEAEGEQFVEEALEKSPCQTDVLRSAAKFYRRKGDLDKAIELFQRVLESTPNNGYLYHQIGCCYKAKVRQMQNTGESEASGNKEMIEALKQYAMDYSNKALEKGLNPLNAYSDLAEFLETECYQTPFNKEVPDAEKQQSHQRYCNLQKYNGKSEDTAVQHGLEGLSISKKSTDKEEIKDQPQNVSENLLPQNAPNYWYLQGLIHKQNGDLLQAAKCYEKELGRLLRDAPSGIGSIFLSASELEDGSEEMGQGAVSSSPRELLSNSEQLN

[4] = target: T3, cysteines in MDA-MB-231 and Ramos cells (Homo sapiens, UniProt Q86SX6)
T3 sequence (Q86SX6 32-157): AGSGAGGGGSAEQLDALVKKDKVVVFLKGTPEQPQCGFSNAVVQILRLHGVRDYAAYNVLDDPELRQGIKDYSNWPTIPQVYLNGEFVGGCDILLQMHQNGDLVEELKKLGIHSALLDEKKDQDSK

[5] = target: cysteines in MDA-MB-231 and Ramos cells (Homo sapiens, UniProt Q7Z2W4)
[6] = target: T4, cysteines in MDA-MB-231 and Ramos cells (Homo sapiens, UniProt P21980)
T4 sequence (P21980 1-687): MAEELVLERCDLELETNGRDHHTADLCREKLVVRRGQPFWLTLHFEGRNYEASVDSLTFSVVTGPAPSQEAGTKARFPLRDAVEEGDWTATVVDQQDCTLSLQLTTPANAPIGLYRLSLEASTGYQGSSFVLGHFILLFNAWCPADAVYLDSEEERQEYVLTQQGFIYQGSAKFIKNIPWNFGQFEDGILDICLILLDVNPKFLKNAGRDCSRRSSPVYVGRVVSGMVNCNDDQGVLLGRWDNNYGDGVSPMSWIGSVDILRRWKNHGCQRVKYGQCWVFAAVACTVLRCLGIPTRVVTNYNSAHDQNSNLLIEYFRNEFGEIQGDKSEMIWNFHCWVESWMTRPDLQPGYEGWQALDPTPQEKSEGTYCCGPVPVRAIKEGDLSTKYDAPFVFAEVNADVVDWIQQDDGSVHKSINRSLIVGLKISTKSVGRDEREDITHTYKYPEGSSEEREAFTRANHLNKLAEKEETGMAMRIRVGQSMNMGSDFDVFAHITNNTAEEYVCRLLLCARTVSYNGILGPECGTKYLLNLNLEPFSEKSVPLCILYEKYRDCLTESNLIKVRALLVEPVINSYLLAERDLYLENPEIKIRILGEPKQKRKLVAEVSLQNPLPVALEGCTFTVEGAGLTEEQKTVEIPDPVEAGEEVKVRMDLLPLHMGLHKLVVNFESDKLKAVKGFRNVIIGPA

[7] = target: T5, cysteines in MDA-MB-231 and Ramos cells (Homo sapiens, UniProt Q13162)
T5 sequence (Q13162 38-271): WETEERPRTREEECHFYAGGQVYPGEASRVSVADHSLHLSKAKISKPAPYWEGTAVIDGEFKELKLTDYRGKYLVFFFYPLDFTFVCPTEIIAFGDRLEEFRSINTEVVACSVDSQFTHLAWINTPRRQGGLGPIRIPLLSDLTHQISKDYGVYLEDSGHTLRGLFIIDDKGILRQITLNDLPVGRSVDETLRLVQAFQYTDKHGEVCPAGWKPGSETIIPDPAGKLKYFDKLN

[8] = target: T6, cysteines in MDA-MB-231 and Ramos cells (Homo sapiens, UniProt Q9NQR4)
T6 sequence (Q9NQR4 1-276): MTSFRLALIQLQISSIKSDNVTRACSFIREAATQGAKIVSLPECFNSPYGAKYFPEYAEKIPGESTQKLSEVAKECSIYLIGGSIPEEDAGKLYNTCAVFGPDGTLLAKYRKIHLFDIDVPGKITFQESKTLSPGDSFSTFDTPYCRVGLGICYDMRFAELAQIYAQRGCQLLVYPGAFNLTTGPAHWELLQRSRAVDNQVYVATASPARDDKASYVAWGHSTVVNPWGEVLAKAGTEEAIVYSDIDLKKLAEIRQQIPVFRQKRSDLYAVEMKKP

[9] = target: cysteines in MDA-MB-231 and Ramos cells (Homo sapiens, UniProt Q9NYL2)
cysteines in MDA-MB-231 and Ramos cells (Homo sapiens, UniProt Q9NYL2), sequence (Q9NYL2 whole entry): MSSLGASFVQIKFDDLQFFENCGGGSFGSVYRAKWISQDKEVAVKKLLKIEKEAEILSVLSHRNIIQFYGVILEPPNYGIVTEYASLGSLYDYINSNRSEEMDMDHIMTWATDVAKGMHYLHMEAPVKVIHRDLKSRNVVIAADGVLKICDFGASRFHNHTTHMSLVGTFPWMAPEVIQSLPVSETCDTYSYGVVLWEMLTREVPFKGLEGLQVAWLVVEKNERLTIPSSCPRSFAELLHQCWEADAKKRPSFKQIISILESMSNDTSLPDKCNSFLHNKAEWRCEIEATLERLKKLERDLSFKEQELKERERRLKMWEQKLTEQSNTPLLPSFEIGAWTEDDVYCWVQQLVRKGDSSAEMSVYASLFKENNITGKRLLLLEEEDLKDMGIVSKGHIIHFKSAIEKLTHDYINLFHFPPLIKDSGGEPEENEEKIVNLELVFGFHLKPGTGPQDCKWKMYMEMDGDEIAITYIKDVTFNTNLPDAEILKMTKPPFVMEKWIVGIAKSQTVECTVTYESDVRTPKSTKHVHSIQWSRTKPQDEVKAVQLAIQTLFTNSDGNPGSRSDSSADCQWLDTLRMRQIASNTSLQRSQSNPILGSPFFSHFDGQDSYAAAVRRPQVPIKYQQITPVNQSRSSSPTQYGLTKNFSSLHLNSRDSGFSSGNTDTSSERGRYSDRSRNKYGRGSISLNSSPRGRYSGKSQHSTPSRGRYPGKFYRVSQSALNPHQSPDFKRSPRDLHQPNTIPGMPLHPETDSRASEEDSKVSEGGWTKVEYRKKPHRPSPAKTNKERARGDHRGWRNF

cysteines in MDA-MB-231 and Ramos cells (Homo sapiens, UniProt Q9NUY8), sequence (Q9NUY8 whole entry): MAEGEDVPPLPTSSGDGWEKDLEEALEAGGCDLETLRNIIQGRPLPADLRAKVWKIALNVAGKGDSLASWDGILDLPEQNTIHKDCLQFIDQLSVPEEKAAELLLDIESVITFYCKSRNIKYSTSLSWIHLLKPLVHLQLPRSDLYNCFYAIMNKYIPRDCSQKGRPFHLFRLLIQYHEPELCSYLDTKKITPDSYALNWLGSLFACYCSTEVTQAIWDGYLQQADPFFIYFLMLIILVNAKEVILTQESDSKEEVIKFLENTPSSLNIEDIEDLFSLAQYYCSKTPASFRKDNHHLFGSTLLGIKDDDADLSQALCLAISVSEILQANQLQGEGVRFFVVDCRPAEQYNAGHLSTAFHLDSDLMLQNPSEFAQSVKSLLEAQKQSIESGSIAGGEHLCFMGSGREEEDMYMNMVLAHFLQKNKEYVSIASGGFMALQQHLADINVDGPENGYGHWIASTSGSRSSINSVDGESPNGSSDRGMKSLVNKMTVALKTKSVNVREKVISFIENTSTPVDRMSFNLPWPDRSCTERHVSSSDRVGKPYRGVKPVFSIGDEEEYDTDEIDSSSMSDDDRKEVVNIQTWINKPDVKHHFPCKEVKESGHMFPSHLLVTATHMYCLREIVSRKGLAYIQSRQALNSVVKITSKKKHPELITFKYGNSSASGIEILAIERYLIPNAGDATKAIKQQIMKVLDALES
cysteines in MDA-MB-231 and Ramos cells (Homo sapiens, UniProt Q7Z2W4), sequence (Q7Z2W4 whole entry): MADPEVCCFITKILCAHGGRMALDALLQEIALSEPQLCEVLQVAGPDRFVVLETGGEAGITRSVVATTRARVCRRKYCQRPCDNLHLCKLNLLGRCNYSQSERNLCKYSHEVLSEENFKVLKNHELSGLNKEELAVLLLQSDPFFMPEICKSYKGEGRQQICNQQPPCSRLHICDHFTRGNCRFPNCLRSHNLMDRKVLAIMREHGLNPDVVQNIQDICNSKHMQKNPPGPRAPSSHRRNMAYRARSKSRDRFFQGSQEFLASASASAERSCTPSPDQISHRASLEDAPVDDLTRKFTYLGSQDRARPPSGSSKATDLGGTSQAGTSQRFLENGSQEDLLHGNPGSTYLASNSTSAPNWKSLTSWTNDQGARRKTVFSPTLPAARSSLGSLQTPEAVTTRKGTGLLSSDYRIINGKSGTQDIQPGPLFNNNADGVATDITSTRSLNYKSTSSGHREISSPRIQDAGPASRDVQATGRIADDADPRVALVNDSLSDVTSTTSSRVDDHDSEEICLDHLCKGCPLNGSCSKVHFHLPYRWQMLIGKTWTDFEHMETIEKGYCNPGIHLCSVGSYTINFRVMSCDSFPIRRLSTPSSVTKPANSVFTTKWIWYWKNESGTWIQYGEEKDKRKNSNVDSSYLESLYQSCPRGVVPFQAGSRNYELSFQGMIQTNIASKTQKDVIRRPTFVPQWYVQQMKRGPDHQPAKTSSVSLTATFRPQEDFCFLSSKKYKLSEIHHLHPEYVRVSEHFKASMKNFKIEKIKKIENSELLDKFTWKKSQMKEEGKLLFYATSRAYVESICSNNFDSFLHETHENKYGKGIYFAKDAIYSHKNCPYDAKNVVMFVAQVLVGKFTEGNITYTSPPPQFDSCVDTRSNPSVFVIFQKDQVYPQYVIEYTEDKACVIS

## COc1ccc(C2CC(c3cccs3)=NN2C(=O)CCl)cc1 (stereo not drawn) [compound 4]
[1]; 100 μM in situ 231
  isoTOP-ABPP reactivity Q9NUY8_C283 TBC1D23: 2.1
[2]; 100 μM in situ 231
  isoTOP-ABPP reactivity Q9HCC0_C216 MCCC2: 5.9
[3]; 100 μM in situ 231
  isoTOP-ABPP reactivity O14879_C343 IFIT3: 6.6
[4]; 100 μM in situ 231
  isoTOP-ABPP reactivity Q865X6_C67 GLRX5: 1.4
[5]; 100 μM in situ 231
  isoTOP-ABPP reactivity Q7Z2W4_C645 ZC3HAV1: 4.4
[6]; 100 μM in situ 231
  isoTOP-ABPP reactivity P21980_C277 TGM2: 0.5
[7]; 100 μM in situ 231
  isoTOP-ABPP reactivity Q13162_C51 PRDX4: 1.2
[8]; 100 μM in situ 231
  isoTOP-ABPP reactivity Q9NQR4_C153 N1T2: 0.7
[9]; 100 μM in situ 231
  isoTOP-ABPP reactivity Q9NYL2_C22 MUTK Mitogen-activated protein kinase MLTK: 20.0

## CC1CCc2ccccc2N1C(=O)CCl (stereo not drawn) [compound 45]
[1]; 200 μM, insitu, 231
  isoTOP-ABPP ratio Q9NUY8_C283: 2.7
[2]; 200 μM, insitu, 231
  isoTOP-ABPP ratio Q9HCC0_C216: 7.0
[3]; 200 μM, insitu, 231
  isoTOP-ABPP ratio O14879_C343: 4.0
[4]; 200 μM, insitu, 231
  isoTOP-ABPP ratio Q86SX6_C67: 9.1
[5]; 200 μM, insitu, 231
  isoTOP-ABPP ratio Q7Z2W4_C645: 4.6
[6]; 200 μM, insitu, 231
  isoTOP-ABPP ratio P21980_C277: 1.1
[7]; 200 μM, insitu, 231
  isoTOP-ABPP ratio Q13162_C51: 2.3
[8]; 200 μM, insitu, 231
  isoTOP-ABPP ratio Q9NQR4_C153: 2.0
[9]; 200 μM, insitu, 231
  isoTOP-ABPP ratio Q9NYL2_C22: 2.3

## O=C(CCl)NC(=O)NC12CC3CC(CC(C3)C1)C2 [compound 12]
[1]; 200 μM, insitu, 231
  isoTOP-ABPP ratio Q9NUY8_C283: 2.9
[2]; 200 μM, insitu, 231
  isoTOP-ABPP ratio Q9HCC0_C216: 20.0
[3]; 200 μM, insitu, 231
  isoTOP-ABPP ratio O14879_C343: 3.5
[4]; 200 μM, insitu, 231
  isoTOP-ABPP ratio Q86SX6_C67: 1.6
[5]; 200 μM, insitu, 231
  isoTOP-ABPP ratio Q7Z2W4_C645: 3.3
[6]; 200 μM, insitu, 231
  isoTOP-ABPP ratio P21980_C277: 0.3
[7]; 200 μM, insitu, 231
  isoTOP-ABPP ratio Q13162_C51: 1.0
[8]; 200 μM, insitu, 231
  isoTOP-ABPP ratio Q9NQR4_C153: 0.9
[9]; 200 μM, insitu, 231
  isoTOP-ABPP ratio Q9NYL2_C22: 0.7

## O=C(CCl)N1CCN(S(=O)(=O)c2ccccc2F)CC1 [compound 10]
[1]; 200 μM, insitu, 231
  isoTOP-ABPP ratio Q9NUY8_C283: 2.0
[2]; 200 μM, insitu, 231
  isoTOP-ABPP ratio Q9HCC0_C216: 2.3
[3]; 200 μM, insitu, 231
  isoTOP-ABPP ratio O14879_C343: 4.9
[4]; 200 μM, insitu, 231
  isoTOP-ABPP ratio Q86SX6_C67: 1.3
[4]; 200 μM, insitu, ramos
  isoTOP-ABPP ratio Q86SX6_C67: 1.1
[5]; 200 μM, insitu, 231
  isoTOP-ABPP ratio Q7Z2W4_C645: 3.8
[6]; 200 μM, insitu, 231
  isoTOP-ABPP ratio P21980_C277: 0.6
[7]; 200 μM, insitu, 231
  isoTOP-ABPP ratio Q13162_C51: 2.0
[8]; 200 μM, insitu, 231
  isoTOP-ABPP ratio Q9NQR4_C153: 20.0
[9]; 200 μM, insitu, 231
  isoTOP-ABPP ratio Q9NYL2_C22: 1.2

## CC(C)CCOCCNC(=O)CCl [compound 27]
[1]; 200 μM, insitu, 231
  isoTOP-ABPP ratio Q9NUY8_C283: 0.6
[2]; 200 μM, insitu, 231
  isoTOP-ABPP ratio Q9HCC0_C216: 1.0
[3]; 200 μM, insitu, 231
  isoTOP-ABPP ratio O14879_C343: 0.4
[4]; 200 μM, insitu, 231
  isoTOP-ABPP ratio Q86SX6_C67: 1.5
[5]; 200 μM, insitu, 231
  isoTOP-ABPP ratio Q7Z2W4_C645: 0.8
[6]; 200 μM, insitu, 231
  isoTOP-ABPP ratio P21980_C277: 0.6
[7]; 200 μM, insitu, 231
  isoTOP-ABPP ratio Q13162_C51: 0.9
[8]; 200 μM, insitu, 231
  isoTOP-ABPP ratio Q9NQR4_C153: 1.3
[9]; 200 μM, insitu, 231
  isoTOP-ABPP ratio Q9NYL2_C22: 0.7

## COc1ccc2c(c1)CCCN2C(=O)CCl [compound 2]
[1]; 200 μM, insitu, 231
  isoTOP-ABPP reactivity Q9NUY8_C283 TBC1D23: 4.1
[2]; 200 μM, insitu, 231
  isoTOP-ABPP reactivity Q9HCC0_C216 MCCC2: 4.6
[3]; 200 μM, insitu, 231
  isoTOP-ABPP reactivity O14879_C343 IFIT3: 7.6
[4]; 200 μM, insitu, 231
  isoTOP-ABPP reactivity Q865X6_C67 GLRX5: 1.1
[6]; 200 μM, insitu, 231
  isoTOP-ABPP reactivity P21980_C277 TGM2: 0.7
[7]; 200 μM, insitu, 231
  isoTOP-ABPP reactivity Q13162_C51 PRDX4: 4.6
[8]; 200 μM, insitu, 231
  isoTOP-ABPP reactivity Q9NQR4_C153 N1T2: 13.1
[9]; 200 μM, insitu, 231
  isoTOP-ABPP reactivity Q9NYL2_C22 MUTK Mitogen-activated protein kinase MLTK: 5.5

## Cn1cc(S(=O)(=O)N2CCOCC2)cc1C(=O)NC(=O)CCl [compound 11]
[1]; 100 μM in situ 231
  isoTOP-ABPP ratio Q9NUY8_C283: 1.1
[2]; 100 μM in situ 231
  isoTOP-ABPP ratio Q9HCC0_C216: 1.9
[3]; 100 μM in situ 231
  isoTOP-ABPP ratio O14879_C343: 0.4
[4]; 100 μM in situ 231
  isoTOP-ABPP ratio Q86SX6_C67: 1.4
[5]; 100 μM in situ 231
  isoTOP-ABPP ratio Q7Z2W4_C645: 1.0
[6]; 100 μM in situ 231
  isoTOP-ABPP ratio P21980_C277: 0.6
[7]; 100 μM in situ 231
  isoTOP-ABPP ratio Q13162_C51: 0.9
[8]; 100 μM in situ 231
  isoTOP-ABPP ratio Q9NQR4_C153: 3.7
[9]; 100 μM in situ 231
  isoTOP-ABPP ratio Q9NYL2_C22: 0.7

## COc1cc2c(cc1OC)CN(C(=O)CCl)CC2 [compound 8]
[1]; 200 μM, insitu, 231
  isoTOP-ABPP reactivity Q9NUY8_C283 TBC1D23: 4.9
[2]; 200 μM, insitu, 231
  isoTOP-ABPP reactivity Q9HCC0_C216 MCCC2: 3.9
[3]; 200 μM, insitu, 231
  isoTOP-ABPP reactivity O14879_C343 IFIT3: 2.1
[4]; 200 μM, insitu, 231
  isoTOP-ABPP reactivity Q865X6_C67 GLRX5: 1.0
[5]; 200 μM, insitu, 231
  isoTOP-ABPP reactivity Q7Z2W4_C645 ZC3HAV1: 5.1
[6]; 200 μM, insitu, 231
  isoTOP-ABPP reactivity P21980_C277 TGM2: 0.7
[7]; 200 μM, insitu, 231
  isoTOP-ABPP reactivity Q13162_C51 PRDX4: 1.4
[8]; 200 μM, insitu, 231
  isoTOP-ABPP reactivity Q9NQR4_C153 N1T2: 20.0
[9]; 200 μM, insitu, 231
  isoTOP-ABPP reactivity Q9NYL2_C22 MUTK Mitogen-activated protein kinase MLTK: 1.4
